Measurements as given in ChEMBL document CHEMBL6092220 (J Med Chem, 2024).
pIC50: −log10 of the molar value. Active and inactive are the calls of the source. No cut-off for these calls is given here.

Columns and labels:
[1] = AUC (0 to t) in Sprague-Dawley rat at 5 mg/kg, iv; type: ADME, organism-based; details: in vivo
[2] = biological target: T1, Protein cereblon/Signal transducer and activator of transcription 3 (Mus musculus) (UniProt P42227+Q8C7D2); test: In-vivo PROTAC activity at STAT3/CRBN in female CB17 SCID mouse assessed as reduction in STAT3 level tumor at 5 mg/kg, iv measured at 72 hrs by immunobloting analysis; type: functional, organism-based; design: scale not given: the % may be the effect or the level left
[3] = biological target: T1, Protein cereblon/Signal transducer and activator of transcription 3 (Mus musculus); test: In-vivo PROTAC activity at STAT3/CRBN in female CB17 SCID mouse assessed as reduction STAT3 level liver at 10 mg/kg, iv measured at 24 hrs by Western blot analysis; type: functional, organism-based; design: scale not given: the % may be the effect or the level left
[4] = Cmax in Beagle dog at 1 mg/kg, iv; type: ADME, organism-based, Canis lupus familiaris; details: in vivo
[5] = biological target: T2, Protein cereblon/Signal transducer and activator of transcription 3 (Homo sapiens, UniProt P40763+Q96SW2); test: PROTAC activity at STAT3/CRBN in human Pfeiffer cells transfected with STAT3 K658R mutant assessed as reduction in STAT3 level at 64 nM incubated for 20 hrs by Western blot analysis; type: cell-based; design: scale not given: the % may be the effect or the level left
[6] = biological target: T2, Protein cereblon/Signal transducer and activator of transcription 3; test: PROTAC activity at his-SUMO-tagged STAT3 (127 to 688 residues)/CRBN in human MOLM16 cells assessed as reduction in STAT3 level upto 40 uM incubated for 4 hrs by Western blot analysis relative to control; type: cell-based; design: scale not given: the % may be the effect or the level left
[7] = Apparent permeability across basolateral to apical side in human Caco-2 cells; type: ADME, cell-based
[8] = biological target: T3, Protein cereblon/Signal transducer and activator of transcription 6 (Homo sapiens) (UniProt P42226+Q96SW2); test: PROTAC activity at STAT6/CRBN in human SU-DHL-1 cells assessed as reduction in STAT6 level incubated for 20 hrs by Western blot analysis; type: cell-based
[9] = biological target: T4, Protein cereblon/Signal transducer and activator of transcription 2 (Homo sapiens) (UniProt Q96SW2+P52630); test: PROTAC activity at STAT2/CRBN in human Pfeiffer cells transfected with STAT3 K658R mutant assessed as reduction in STAT2 level upto 40 uM incubated for 20 hrs by Western blot analysis; type: cell-based
[10] = Clearance in Beagle dog assessed as hepatic blood flow at 1 mg/kg, iv; type: ADME, organism-based, Canis lupus familiaris; details: in vivo
[11] = Drug concentration in female CB17 SCID mouse tumor at 5 mg/kg, iv measured at 3 hrs by LC-MS/MS analysis; type: ADME, organism-based, Neoplasm; details: read-out: Ct
[12] = Stability in Non human primate plasma assessed as half life; type: ADME, cell-free
[13] = biological target: Signal transducer and activator of transcription 6 (Homo sapiens) (UniProt P42226); test: Binding affinity to STAT6 (unknown origin) assessed as maximum inhibition by FP assay relative to control
[14] = Antiproliferative activity against human SUPM2 cells assessed as cell growth inhibition incubated for 4 days by celltiter-glo assay; type: functional, cell-based; details: SUP-M2, 96 h
[15] = biological target: T3, Protein cereblon/Signal transducer and activator of transcription 6 (Homo sapiens); test: PROTAC activity at STAT6/CRBN in human Pfeiffer cells transfected with STAT3 K658R mutant assessed as reduction in STAT6 level upto 40 uM incubated for 20 hrs by Western blot analysis; type: cell-based
[16] = Stability in dog Hepatocyte assessed as half life; type: ADME, cell-based, Canis lupus familiaris; details: hepatocytes
[17] = biological target: Protein cereblon/Signal transducer and activator of transcription 1-alpha/beta (Homo sapiens, UniProt P42224+Q96SW2); test: PROTAC activity at STAT1/CRBN in human Pfeiffer cells transfected with STAT3 K658R mutant assessed as reduction in STAT1 level upto 40 uM incubated for 20 hrs by Western blot analysis; type: cell-based
Cytochrome P450 3A4 = Cytochrome P450 3A4 (Homo sapiens, UniProt P08684); test: Inhibition of CYP3A4 (unknown origin) using testosterone as substrate; type: ADME
Cytochrome P450 2C9 = Cytochrome P450 2C9 (Homo sapiens, UniProt P11712); test: Inhibition of CYP2C9 (unknown origin); type: ADME
[18] = biological target: Signal transducer and activator of transcription 1-alpha/beta (Homo sapiens, UniProt P42224); test: Binding affinity to STAT1 (unknown origin) by FP assay
[19] = biological target: T1, Protein cereblon/Signal transducer and activator of transcription 3 (Mus musculus); test: In-vivo PROTAC activity at STAT3/CRBN in female CB17 SCID mouse assessed as reduction STAT3 level spleen at 10 mg/kg, iv measured at 48 hrs by Western blot analysis; type: functional, organism-based; design: scale not given: the % may be the effect or the level left
[20] = Drug concentration in female CB17 SCID mouse spleen at 5 mg/kg, iv measured at 48 hrs by LC-MS/MS analysis; type: ADME, organism-based; details: read-out: Ct
[21] = biological target: T1, Protein cereblon/Signal transducer and activator of transcription 3 (Mus musculus); test: In-vivo PROTAC activity at STAT3/CRBN in female CB17 SCID mouse assessed as STAT3 depletion spleen at 5 mg/kg, iv measured upto 72 hrs by immunobloting analysis; type: functional, organism-based
[22] = biological target: T1, Protein cereblon/Signal transducer and activator of transcription 3 (Mus musculus); test: In-vivo PROTAC activity at STAT3/CRBN in female CB17 SCID mouse assessed as STAT3 depletion liver at 5 mg/kg, iv measured upto 72 hrs by immunobloting analysis; type: functional, organism-based
[23] = Apparent volume of distribution in ICR mouse at 5 mg/kg, iv; type: ADME, organism-based; details: in vivo, read-out: Vz
[24] = biological target: T2, Protein cereblon/Signal transducer and activator of transcription 3; test: PROTAC activity at his-SUMO-tagged STAT3 (127 to 688 residues)/CRBN in human Pfeiffer cells assessed as reduction in STAT3 level upto 40 uM incubated for 4 hrs by Western blot analysis relative to control; type: cell-based; design: scale not given: the % may be the effect or the level left
[25] = Clearance in Sprague-Dawley rat assessed as hepatic blood flow at 5 mg/kg, iv; type: ADME, organism-based; details: in vivo
Cytochrome P450 2B6 = Cytochrome P450 2B6 (Homo sapiens, UniProt P20813); test: Inhibition of CYP2B6 (unknown origin); type: ADME
[26] = biological target: T2, Protein cereblon/Signal transducer and activator of transcription 3; test: PROTAC activity at his-SUMO-tagged STAT3 (127 to 688 residues)/CRBN in human PBMC cells assessed as reduction in STAT3 level at 0.1 to 4000 nM incubated for 20 hrs by Western blot analysis relative to control; type: cell-based; details: dose 0.1-4000 nM
[27] = Plasma protein binding in human assessed as unbound fraction at 10 uM; type: ADME, cell-free
[28] = Cmax in Sprague-Dawley rat at 5 mg/kg, iv; type: ADME, organism-based; details: in vivo
[29] = Drug concentration in female CB17 SCID mouse liver at 5 mg/kg, iv measured at 6 hrs by LC-MS/MS analysis; type: ADME, organism-based; details: read-out: Ct
[30] = biological target: T1, Protein cereblon/Signal transducer and activator of transcription 3 (Mus musculus); test: In-vivo PROTAC activity at STAT3/CRBN in female CB17 SCID mouse assessed as reduction in STAT3 level spleen at 5 mg/kg, iv measured at 72 hrs by immunobloting analysis; type: functional, organism-based; design: scale not given: the % may be the effect or the level left
[31] = biological target: Protein cereblon/Signal transducer and activator of transcription 5B (Homo sapiens) (UniProt P51692+Q96SW2); test: PROTAC activity at STAT5B/CRBN in human PBMC cells assessed as reduction in STAT5B level upto 40 uM incubated for 20 hrs by Western blot analysis; type: cell-based
[32] = biological target: T3, Protein cereblon/Signal transducer and activator of transcription 6 (Homo sapiens); test: PROTAC activity at STAT6/CRBN in human PBMC cells assessed as reduction in STAT6 level upto 40 uM incubated for 20 hrs by Western blot analysis; type: cell-based
[33] = biological target: T4, Protein cereblon/Signal transducer and activator of transcription 2 (Homo sapiens); test: PROTAC activity at STAT2/CRBN in human PBMC cells assessed as reduction in STAT2 level upto 40 uM incubated for 20 hrs by Western blot analysis; type: cell-based

Structure (SMILES): COC(=O)N1CC[C@H]2CC[C@@H](C(=O)N[C@@H](CCC(N)=O)C(=O)N[C@@H](Cc3ccc(F)c(F)c3)C(=O)N3CCC(CCC#Cc4cccc5c4CN(C4CCC(=O)NC4=O)C5=O)CC3)N2C(=O)[C@@H](NC(=O)c2cc3cc(C(F)(F)P(=O)(O)O)ccc3s2)C1 (stereo partly specified)
- AUC(0-t) [1]: 59500 ng·h/mL
- Activity [2]: > 90%
- Activity [3]: > 90%
- Cmax [4]: 8860 ng/mL
- Activity [5]: > 90%
- Activity [6]: > 95%
- Papp [7]: 0.13 10^-6 cm/s
- Activity [8]: Active
- Activity [9]: inactive
- QH [10]: 2.7%
- concentration at 3 h [11]: 2830 ng/g
- half-life [12]: > 2 h
- Imax [13]: 10%
- pIC50 [14]: 6.41
- Activity [15]: inactive
- t1/2 [16]: > 2 h
- Activity [17]: inactive
- IC50 (Cytochrome P450 3A4): > 10000 nM
- pIC50 (Cytochrome P450 2C9): < 5.00
- pIC50 [18]: 6.57
- Activity [19]: > 90%
- concentration at 48 h [20]: 615 ng/g
- Activity [21]: Active
- Activity [22]: Active
- Vd [23]: 0.1 L/kg
- Activity [24]: > 95%
- QH [25]: 2.6%
- pIC50 (Cytochrome P450 2B6): < 5.00
- Emax [26]: > 95%
- Fu [27]: 0.5%
- Cmax [28]: 82600 ng/mL
- concentration at 6 h [29]: 3570 ng/g
- Activity [30]: > 90%
- Activity [31]: inactive
- Activity [32]: inactive
- Activity [33]: inactive
